Source: article PMC5700161, “Structure of human immunoproteasome with a reversible and noncompetitive inhibitor that selectively inhibits activated lymphocytes” (Nature Communications, 2017)

Experiments:
Karpas 1106P cells = assay: Cytotoxicity, CellTiter-glo, Karpas 1106P; settings: read-out: EC50 Karpas, 72 h
Description: Fig. 4 Intracellular proteasome inhibition by PKS21221 and its cytotoxicity against transformed cell lines. a Karpas 1106P lymphoma cells (white and black symbols) or HepG2 cells (blue symbols) were treated with PKS21221 for 2 h at the concentrations indicated prior to incubation with substrate (Ac-ANW)2R110 for β5i (Karpas cells) or suc-LLVY-luciferin for β5 (Karpas cells and HepG2 cells). […] Cell viability was determined by CellTiter-glo. Data are means ± SEM of three to four independent experiments
We incubated MM.1S, RPMI 8226, Karpas and HepG2 cells with PKS21221 at different concentrations, and determined cell viability after 72 h (Fig. 4b).
We used Karpas 1106P B lymphoma cell line (Cat. No. 06072607, Aldrich)[15],[16],[52], HepG2 (HB-8065, ATCC), MM.1S (Cat. No. CRL-2974, ATCC). Cells were cultured at 37 °C in a humidified air/5% CO2 atmosphere in medium supplemented with 10% fetal bovine serum, except for the medium for Karpas 1106P cells which contained 20% fetal bovine serum, and 100 units per ml penicillin, 100 μg per ml streptomycin in RPMI 1640 medium. Karpas 1106P was used at 80,000 cells per well, MM.1S at 100,000 cells per well, and HepG2 at 12,000 cells per well. […] Viable cells were counted using Cell-titer Glo assay kit. EC50s were calculated using PRISM (Graphpad).

proliferating T cells = assay: Apoptosis and viability of proliferating vs non-proliferating T cells; assay type: cell-based, human; settings: 4 days anti-CD3/anti-CD28, then 24 h; PKS21221 1 µM, BTZ 10 nM
Source text: As we observed selective cytotoxicity of PKS21221 in activated B cells and ASCs compared to non-activated B cells, we asked whether this is the case in proliferating T cells. We activated human T cells to proliferate with anti-CD3 and anti-CD28 in the presence or absence of PKS21221 or bortezomib. […] To examine whether these inhibitors are cytotoxic preferentially to proliferating cells, we triggered T-cell proliferation with anti-CD3/anti-CD28 for 4 days (in the absence of inhibitors), treated the cells with PKS21221 for the next 24 h and determined cell survival with Annexin V and 7-AAD (Fig. 6c, d).
Fig. 6 Effect of PKS21221 and bortezomib (BTZ) on T-cell proliferation. T cells were isolated from human PBMC and stimulated with anti-CD3 (1 µg per ml) and anti-CD28 (1 µg per ml) for 4 days. […] Apoptosis c and viability d were assessed in proliferating and non-proliferating population of T cells. […]
T cells were isolated from human PBMCs using Human T-cell Isolation kit (StemCell Technologies, Cat#17951). […] Cells were counted and loaded with 5 μM CellTrace Violet (Thermo Fisher) in phosphate buffered saline (PBS) for 10 min at 37 °C, followed by wash in 10% fetal calf serum (FCS)-supplemented RPMI 1640 media. […] The viability and apoptosis were assessed using Annexin V Apoptosis Detection Kit (BD Biosciences). […]

With `Cc1ccc(S(=O)(=O)N[C@@H](CC(=O)NC(C)(C)C)C(=O)NCCNC(=O)c2cc(-c3ccccc3F)ccc2F)cc1` [PKS21221] the EC50 (Karpas 1106P cells) was 740 ± 145 nM and the “apoptosis and cell death, proliferating vs non-proliferating T cells” value (proliferating T cells) was “induced apoptosis and cell death to a greater extent in proliferating T cells than in non-proliferating T cells”.
